This passage reports IC50 results from patent US20240148821A1, “PHARMACEUTICAL USE OF CYCLIC PEPTIDE COMPOUND” (CHUGAI SEIYAKU KABUSHIKI KAISHA, priority 2021, published 2024).

pIC50: −log10 of the molar value. Numbered stars: 1 amine (or outer) side, 2 acyl side, 3 side chain; on linkers, the order of the positions; unused ones are H or OH. Bridge positions count the residues as written; N and C are the ends. Square brackets hold non-standard residues; d marks the D form. Peptide text beside a SMILES is read from it. * marks the point of attachment. hPhe(3-Cl-4-CF3) = N[C@@H](CCc1ccc(C(F)(F)F)c(Cl)c1)C(=O)O; hPhe(3-F,4-CF3) = N[C@@H](CCc1ccc(C(F)(F)F)c(F)c1)C(=O)O; NMePhe(4-CF3) = CN[C@@H](Cc1ccc(C(F)(F)F)cc1)C(=O)O; NMePhe(4-Cl) = CN[C@@H](Cc1ccc(Cl)cc1)C(=O)O; NMePhe(4-Me) = CN[C@@H](Cc1ccc(C)cc1)C(=O)O; hPhe(4-Cl) = N[C@@H](CCc1ccc(Cl)cc1)C(=O)O; NMedβ3hAla = C[C@H](CC(=O)[*:2])N(C)[*:1]; Leu(4,5-dehydro) = C=C(C)C[C@H](N)C(=O)O; Phe(3-I) = N[C@@H](Cc1cccc(I)c1)C(=O)O; NMeY = CN[C@@H](Cc1ccc(O)cc1)C(=O)O; NMeCha = CN[C@@H](CC1CCCCC1)C(=O)O; NMeChg = CN[C@H](C(=O)O)C1CCCCC1; NMeI = CC[C@H](C)[C@H](NC)C(=O)O; N(CH2CH2)2CF2 = FC1(F)CCN(*)CC1; NMeD = CN[C@@H](CC(=O)O)C(=O)O; NMeL = CN[C@@H](CC(C)C)C(=O)O; NPrAla = CCCN[C@@H](C)C(=O)O; NMeV = CN[C@H](C(=O)O)C(C)C; d(β3hA) = C[C@@H](N)CC(=O)O; Pip = O=C(O)[C@@H]1CCCCN1; NMeA = CN[C@@H](C)C(=O)O; NMeAib = CNC(C)(C)C(=O)O; Piperidide = C1CCN(*)CC1; Pra = C#CC[C@H](N)C(=O)O; Ac5c = NC1(C(=O)O)CCCC1; Aze = O=C(O)[C@@H]1CCN1; Abu = CC[C@H](N)C(=O)O; CF3 = FC(F)(F)*; Sar = CNCC(=O)O

This test has as its system Human pancreatic cancer cell line AsPC-1 (G12D mutation Kras). Put plainly: AsPC-1 cell growth inhibition (AsPC-1 CGI). The format is cell-based. The conditions noted are these: read-out: AsPC-1 cell growth inhibition, 50% growth inhibitory concentration (IC50 value); 96 hours, CellTiter-Glo, values classified in ranges.
Experimental: Test compounds were serially dilated with dimethyl sulfoxide, and 200 nL was then dispensed to a U-bottom 96-well plate using Labcyte Echo. […] The cell suspension was dispensed to a. plate containing a test compound at 100 μL per well and incubated at 37° C. in a 5% carbon dioxide gas incubator. 96 hours later, 80 μL of CellTiter-Glo (Promega) was added to each well and fluorescence was measured.
As for `CC[C@@H]1NC(=O)[C@H]([C@@H](C)CC)NC(=O)[C@H](CC(C)C)N(C)C(=O)C[C@@H](C)NC(=O)[C@H](C(C)C)N(C)C(=O)C2(CCCC2)NC(=O)[C@@H]2CCCN2C(=O)[C@H](CCc2ccc(C(F)(F)F)c(Cl)c2)NC(=O)CN(C)C(=O)[C@H](CC2CCCCC2)N(C)C(=O)CN(C)C1=O` [Compound 1459] (cyclo([Abu][Sar][NMeCha][Sar][hPhe(3-Cl-4-CF3)]P[Ac5c][NMeV][d(β3hA)][NMeL]I)), the pIC50 was under 6.30.

As to `CC[C@H](C)[C@@H]1NC(=O)[C@H](CC(C)C)N(C)C(=O)C[C@@H](C(=O)N(C)C)N(C)C(=O)[C@H]([C@@H](C)CC)N(C)C(=O)C2(CCCC2)NC(=O)[C@H](C)N(C)C(=O)[C@H](CCc2ccc(C(F)(F)F)c(Cl)c2)NC(=O)CN(C)C(=O)[C@H](Cc2ccc(C)cc2)N(C)C(=O)[C@@H]2CCN2C(=O)[C@H](C)N(C)C1=O` [Compound 378] ([NMeL]I[NMeA][Aze][NMePhe(4-Me)][Sar][hPhe(3-Cl-4-CF3)][NMeA][Ac5c][NMeI][NMeD]-NMe2; lactam N-11), the pIC50 is at least 7.70.

Regarding `CC[C@H](C)[C@@H]1NC(=O)[C@H](C)N(C)C(=O)C[C@@H](C)N(C)C(=O)[C@H](CC(C)C)NC(=O)C(C)(C)N(C)C(=O)[C@H](CC(C)C)NC(=O)[C@H](CCc2ccc(C(F)(F)F)c(Cl)c2)NC(=O)CN(C)C(=O)[C@H](Cc2ccc(C(F)(F)F)cc2)N(C)C(=O)[C@@H]2CCN2C(=O)CN(C)C1=O` [Compound 1392] (cyclo([Aze][NMePhe(4-CF3)][Sar][hPhe(3-Cl-4-CF3)]L[NMeAib]L[NMedβ3hAla][NMeA]I[Sar])), the pIC50 is under 6.30. The figure for `CC(C)C[C@H]1C(=O)N[C@@H](C(C)C)C(=O)N(C)CC(=O)N(C)CC(=O)N(C)[C@@H](CC2CCCCC2)C(=O)N(C)CC(=O)N[C@@H](CCc2ccc(C(F)(F)F)c(F)c2)C(=O)N2CCC[C@H]2C(=O)NC2(CCCC2)C(=O)N(C)[C@@H](CC(C)C)C(=O)N[C@H](C)CC(=O)N1C` [Compound 1493] (cyclo([Ac5c][NMeL][d(β3hA)][NMeL]V[Sar][Sar][NMeCha][Sar][hPhe(3-F,4-CF3)]P)) is under 6.30; for `CC[C@H](C)[C@@H]1NC(=O)[C@H](CC(C)C)N(C)C(=O)C[C@@H](C)N(C)C(=O)[C@H](C2CCCCC2)N(C)C(=O)C2(CCCC2)NC(=O)[C@@H]2CCCN2C(=O)[C@H](CCc2ccc(C(F)(F)F)c(Cl)c2)NC(=O)CN(C)C(=O)[C@H](CC2CCCCC2)N(C)C(=O)[C@@H]2CCN2C(=O)[C@H](C)N(C)C1=O` [Compound 1813] (cyclo([Ac5c][NMeChg][NMedβ3hAla][NMeL]I[NMeA][Aze][NMeCha][Sar][hPhe(3-Cl-4-CF3)]P)) it is under 6.30. As for `CCCN1C(=O)C[C@@H](C)NC(=O)[C@H](C(C)C)N(C)C(=O)C2(CCCC2)NC(=O)[C@@H]2CCCN2C(=O)[C@H](CCc2ccc(C(F)(F)F)c(Cl)c2)NC(=O)CN(C)C(=O)[C@H](CC2CCCCC2)N(C)C(=O)CN(C)C(=O)CN(C)C(=O)[C@H]([C@@H](C)CC)NC(=O)[C@@H]1C` [Compound 114] (cyclo([Ac5c][NMeV][d(β3hA)][NPrAla]I[Sar][Sar][NMeCha][Sar][hPhe(3-Cl-4-CF3)]P)), the pIC50 is under 6.30. With `CC[C@H](C)[C@@H]1NC(=O)[C@@H]2CCCCN2C(=O)C[C@@H](C(=O)N2CCCCC2)N(C)C(=O)[C@H](C(C)C)N(C)C(=O)C2(CCCC2)NC(=O)[C@@H]2CCCN2C(=O)[C@H](CCc2ccc(Cl)cc2)NC(=O)CN(C)C(=O)[C@H](CC2CCCCC2)N(C)C(=O)CN(C)C(=O)CN(C)C1=O` [Compound 841] ([Pip]I[Sar][Sar][NMeCha][Sar][hPhe(4-Cl)]P[Ac5c][NMeV][NMeD]-Piperidide; lactam N-11), the pIC50 is under 6.30. `CC[C@H](C)[C@@H]1NC(=O)[C@H](CC(C)C)N(C)C(=O)C[C@@H](C(=O)N(C)C)N(C)C(=O)[C@H](C(C)C)N(C)C(=O)C2(CCCC2)NC(=O)[C@H](CC(=O)N2CCC(F)(F)CC2)N(C)C(=O)[C@H](CCc2ccc(C(F)(F)F)c(Cl)c2)NC(=O)CN(C)C(=O)[C@H](CC2CCCCC2)N(C)C(=O)CN(C)C(=O)CN(C)C1=O` [Compound 218] ([NMeL]I[Sar][Sar][NMeCha][Sar][hPhe(3-Cl-4-CF3)][NMeD](N(CH2CH2)2CF2)[Ac5c][NMeV][NMeD]-NMe2; lactam N-11): the pIC50 is under 6.30. For the compound `C=C(C)C[C@@H]1NC(=O)[C@H](Cc2cccc(I)c2)NC(=O)CN(C)C(=O)[C@H](Cc2ccc(Cl)cc2)N(C)C(=O)CN(C)C(=O)CN(C)C(=O)[C@H]([C@@H](C)CC)NC(=O)[C@H](CC(C)C)N(C)C(=O)C[C@@H](C(=O)N2CCCCC2)N(C)C(=O)[C@H](CC(C)C)NC(=O)C(C)(C)N(C)C1=O` [Compound 1421] ([NMeL]I[Sar][Sar][NMePhe(4-Cl)][Sar][Phe(3-I)][Leu(4,5-dehydro)][NMeAib]L[NMeD]-Piperidide; lactam N-11), the pIC50 is under 6.30.

On to `C#CC[C@@H]1NC(=O)[C@H](Cc2cccc(I)c2)NC(=O)CN(C)C(=O)[C@H](Cc2ccc(OC(F)(F)F)cc2)N(C)C(=O)CN(C)C(=O)CN(C)C(=O)[C@H]([C@@H](C)CC)NC(=O)[C@H](CC(C)C)N(C)C(=O)C[C@@H](C(=O)N2CCCCC2)N(C)C(=O)[C@H](CC(C)C)NC(=O)C(C)(C)N(C)C1=O` [Compound 1219] ([NMeL]I[Sar][Sar][NMeY](CF3)[Sar][Phe(3-I)][Pra][NMeAib]L[NMeD]-Piperidide; lactam N-11), for which the pIC50 is under 6.30.
